Source: US20150079105A1, “TREATMENT OF ACUTE INFLAMMATION IN THE RESPIRATORY TRACT” (UCL Business PLC, priority 2012, published 2015)
Entries after “also recorded” stand apart in the source; their conditions may differ.

Columns and labels:
Assay type in all cases: in vivo
[1] = system: TNF, IL-6, CXCL1, CXCL2, CCL2, CCL7; assay: Cytokine and chemokine protein levels in lung homogenates of LPS challenged mice (Luminex bead array, ELISA); settings: 5 mg/kg i.p. 30 min after LPS, 3 h
Procedure: FIG. 8. Mice were killed three hours after LPS (125 μg/kg i.n.) or saline challenge with or without the PAR1 antagonist RWJ-58259 (5 mg/kg) dosed i.p. after 30 min. Lungs were removed and homogenized. Levels of TNF (A), IL-6 (B) CXCL1 (C), and CXCL2 (D) protein were measured in lung homogenates using a Luminex bead array. Protein levels of CCL2 (H) and CCL7 (I) were measured from lung homogenates by ELISA. Mean and sem values of n=5 per group are shown. Data were analysed by one way ANOVA with Newman-Keuls post hoc test: ***p<0.001, **p<0.01, *p<0.05. […]
Cytokine and chemokine levels were measured by ELISA.
In order to confirm the LDA analysis of mRNA expression, the level of protein in lung homogenates was measured.

[2] = system: LPS challenged mice; assay: LPS-induced acute lung inflammation in mice: BAL fluid cell counts, MPO, serum albumin
[3] = system: 151 inflammatory mediators; assay: Low density array (LDA) of 151 inflammatory mediators, lung mRNA of LPS challenged mice; settings: 5 mg/kg i.p. 30 min after LPS, 3 h
Procedure: FIG. 7. […] Lungs were removed, snap frozen and homogenised under liquid nitrogen before RNA was isolated and run on a low density gene array consisting of 151 inflammatory markers (A). […] Of these genes the pro-inflammatory cytokines TNF and IL-6, and the neutrophil chemoattractants CXCL1 and CXCL2, in addition to the chemokines CCL2 and CCL7 are further depicted (D). Data were analysed by one way ANOVA with Newman-Keuls Post Hoc test:, **p<0.01, *p<0.05.
In order to identify potential PAR1-regulated cytokine/chemokine candidates involved in LPS-induced ALI, a low density array (LDA) designed to profile 151 inflammatory mediators was used (FIG. 7a, FIG. 9). Total RNA was extracted from pulverised frozen pulverised lung using TRIzol (see manufacture's protocol (Invitrogen)), DNase treated using a DNA free kit (Ambion) and cDNA synthesised from 1 μg RNA/per sample using a Superscript kit (Invitrogen). Expression levels of known inflammatory mediators were analysed in cDNA using Taqman low density array qPCR chips and normalized to 18 s. Transcript data was analysed using the Gene Expression Similarity Suite (Genesis) software^51 and data represented as a heat map following log2 transformation and normalisation. Relative fold-difference in expression was calculated using the ΔΔT method with the saline treated group as the calibrator reference. […] The differential gene expression profile included the upregulation of several genes known to be important for the generation of inflammatory responses, such as TNF, interleukins, CXC chemokines and CC chemokines, including CCL2, CCL3, CCL4, CCL7, CCL22, CXCL1, CXCL2, CXCL10, CXCL13 and CX3CL1.

[4] = system: CCL7, Gr-1+ neutrophils; assay: Immunohistochemical staining of CCL7 and Gr-1 in lung sections of LPS challenged mice; settings: 5 mg/kg 30 min after LPS; lungs fixed after 3 h
Procedure: FIG. 16. Mice were challenged with 125 μg/kg LPS (i.n.) and whole lungs inflated and fixed after 3 h. Immunohistochemical staining of CCL7 (a, b an c) or Gr-1 (d, e and f) was compared between saline treated controls and LPS challenged mice with or without treatment with the PAR1 antagonist RWJ-58259 (5 mg/kg) dosed therapeutically after 30 min. [AEW]. Endothelial-epithelial barrier disruption was measured by ELISA as the amount of serum albumin in BAL fluid from mice three hours after LPS (125 μg/kg i.n.) challenge (g) or S. pneumoniae challenge (h) with and without the PAR1 antagonist RWJ-58259 (5 mg/kg) dosed therapeutically i.p. after 30 min.
The observation that neutrophil migration downstream of PAR1 activation was mediated by the non-classical neutrophil chemokine, CCL7, was unexpected. In order to determine the cellular source of CCL7 the immunolocalization of CCL7 and Gr-1+ neutrophils in serial lung sections from saline treated and LPS-challenged mice was examined. In saline treated control lung, there was weak CCL7 staining which was mainly restricted to the bronchial epithelium (FIG. 16a). […] Only weak immunolocalization was detected in the alveolar epithelium. […] Gr-1 specific immunostaining was next performed in order to detect neutrophils in serial lung sections. No Gr-1 staining could be detected in saline treated controls (FIG. 16d). […]

[5] = 5 mg/kg i.p. 30 min after LPS 125 μg/kg i.n., 3 h after LPS, vs LPS alone
[6] = 5 mg/kg i.p. 30 min after LPS, 3 h

NCC[C@H](NC(=O)[C@H](Cc1ccc(F)c(F)c1)NC(=O)Nc1ccc2c(CN3CCCC3)nn(Cc3c(Cl)cccc3Cl)c2c1)C(=O)NCc1ccccc1 [RWJ-58259]
CCL2 protein level in lung homogenates [1]: decreased
CCL7 protein level in lung homogenates [1]: decreased
CXCL1 protein level in lung homogenates ([1]; listed as PAR1 antagonist): unaffected; also recorded: not affected
CXCL2 protein level in lung homogenates ([1]; listed as PAR1 antagonist): unaffected; also recorded: not affected
IL-6 protein level in lung homogenates ([1]; listed as PAR1 antagonist): did not attenuate; also recorded: not affected
TNF protein level in lung homogenates ([1]; listed as PAR1 antagonist): did not attenuate; also recorded: not affected
neutrophil numbers in the airspaces (BAL fluid) [2, 5]: significantly decreased
total cell numbers in the airspaces (BAL fluid) [2, 5]: significantly decreased
Gr-1+(F4/80−) neutrophils recovered from BAL fluid and whole lung preparations, flow cytometry [2, 6]: a decrease
LPS-induced neutrophil myeloperoxidase activity in lung homogenates [2, 6]: reduced
macrophage numbers in BAL fluid [2, 6]: remained unchanged
serum albumin levels in BAL fluid (alveolar-capillary barrier disruption) ([2]; 5 mg/kg i.p. 30 min after LPS, 3 h, vs LPS alone, listed as PAR1 antagonist): significantly decreased; also recorded: significantly reduced
neutrophil recruitment ([2]; 5 mg/kg i.p. 30 min after LPS, 6 h following LPS challenge): reduced
neutrophil recruitment ([2]; 5 mg/kg i.p. 30 min after LPS, 24 h following LPS challenge): reduced
CCL2 (MCP-1) mRNA expression in lung [3]: decreased
CCL7 (MCP-3) mRNA expression in lung [3]: decreased
CXCL1 mRNA expression in lung [3]: unaffected
CXCL2 mRNA expression in lung [3]: unaffected
IL-6 mRNA expression in lung [3]: unaffected
TNF mRNA expression in lung [3]: unaffected
number of genes (markers) with decreased expression following PAR1 antagonism ([3]; array of 151 markers): 25 genes
Gr-1 immunoreactivity in lung sections [4]: decreased
LPS-induced CCL7 immunoreactivity in lung sections [4]: reduced
